As usually defined, the IC50 is the point on the concentration scale where inhibition reaches its midpoint.

For the test, the target named is T1, human ACC2 (Homo sapiens, UniProt O00763).
T1 construct: made in house; host or cells: insect cells (baculoviral expression system)
T1 sequence (O00763 129-2458 limits assumed): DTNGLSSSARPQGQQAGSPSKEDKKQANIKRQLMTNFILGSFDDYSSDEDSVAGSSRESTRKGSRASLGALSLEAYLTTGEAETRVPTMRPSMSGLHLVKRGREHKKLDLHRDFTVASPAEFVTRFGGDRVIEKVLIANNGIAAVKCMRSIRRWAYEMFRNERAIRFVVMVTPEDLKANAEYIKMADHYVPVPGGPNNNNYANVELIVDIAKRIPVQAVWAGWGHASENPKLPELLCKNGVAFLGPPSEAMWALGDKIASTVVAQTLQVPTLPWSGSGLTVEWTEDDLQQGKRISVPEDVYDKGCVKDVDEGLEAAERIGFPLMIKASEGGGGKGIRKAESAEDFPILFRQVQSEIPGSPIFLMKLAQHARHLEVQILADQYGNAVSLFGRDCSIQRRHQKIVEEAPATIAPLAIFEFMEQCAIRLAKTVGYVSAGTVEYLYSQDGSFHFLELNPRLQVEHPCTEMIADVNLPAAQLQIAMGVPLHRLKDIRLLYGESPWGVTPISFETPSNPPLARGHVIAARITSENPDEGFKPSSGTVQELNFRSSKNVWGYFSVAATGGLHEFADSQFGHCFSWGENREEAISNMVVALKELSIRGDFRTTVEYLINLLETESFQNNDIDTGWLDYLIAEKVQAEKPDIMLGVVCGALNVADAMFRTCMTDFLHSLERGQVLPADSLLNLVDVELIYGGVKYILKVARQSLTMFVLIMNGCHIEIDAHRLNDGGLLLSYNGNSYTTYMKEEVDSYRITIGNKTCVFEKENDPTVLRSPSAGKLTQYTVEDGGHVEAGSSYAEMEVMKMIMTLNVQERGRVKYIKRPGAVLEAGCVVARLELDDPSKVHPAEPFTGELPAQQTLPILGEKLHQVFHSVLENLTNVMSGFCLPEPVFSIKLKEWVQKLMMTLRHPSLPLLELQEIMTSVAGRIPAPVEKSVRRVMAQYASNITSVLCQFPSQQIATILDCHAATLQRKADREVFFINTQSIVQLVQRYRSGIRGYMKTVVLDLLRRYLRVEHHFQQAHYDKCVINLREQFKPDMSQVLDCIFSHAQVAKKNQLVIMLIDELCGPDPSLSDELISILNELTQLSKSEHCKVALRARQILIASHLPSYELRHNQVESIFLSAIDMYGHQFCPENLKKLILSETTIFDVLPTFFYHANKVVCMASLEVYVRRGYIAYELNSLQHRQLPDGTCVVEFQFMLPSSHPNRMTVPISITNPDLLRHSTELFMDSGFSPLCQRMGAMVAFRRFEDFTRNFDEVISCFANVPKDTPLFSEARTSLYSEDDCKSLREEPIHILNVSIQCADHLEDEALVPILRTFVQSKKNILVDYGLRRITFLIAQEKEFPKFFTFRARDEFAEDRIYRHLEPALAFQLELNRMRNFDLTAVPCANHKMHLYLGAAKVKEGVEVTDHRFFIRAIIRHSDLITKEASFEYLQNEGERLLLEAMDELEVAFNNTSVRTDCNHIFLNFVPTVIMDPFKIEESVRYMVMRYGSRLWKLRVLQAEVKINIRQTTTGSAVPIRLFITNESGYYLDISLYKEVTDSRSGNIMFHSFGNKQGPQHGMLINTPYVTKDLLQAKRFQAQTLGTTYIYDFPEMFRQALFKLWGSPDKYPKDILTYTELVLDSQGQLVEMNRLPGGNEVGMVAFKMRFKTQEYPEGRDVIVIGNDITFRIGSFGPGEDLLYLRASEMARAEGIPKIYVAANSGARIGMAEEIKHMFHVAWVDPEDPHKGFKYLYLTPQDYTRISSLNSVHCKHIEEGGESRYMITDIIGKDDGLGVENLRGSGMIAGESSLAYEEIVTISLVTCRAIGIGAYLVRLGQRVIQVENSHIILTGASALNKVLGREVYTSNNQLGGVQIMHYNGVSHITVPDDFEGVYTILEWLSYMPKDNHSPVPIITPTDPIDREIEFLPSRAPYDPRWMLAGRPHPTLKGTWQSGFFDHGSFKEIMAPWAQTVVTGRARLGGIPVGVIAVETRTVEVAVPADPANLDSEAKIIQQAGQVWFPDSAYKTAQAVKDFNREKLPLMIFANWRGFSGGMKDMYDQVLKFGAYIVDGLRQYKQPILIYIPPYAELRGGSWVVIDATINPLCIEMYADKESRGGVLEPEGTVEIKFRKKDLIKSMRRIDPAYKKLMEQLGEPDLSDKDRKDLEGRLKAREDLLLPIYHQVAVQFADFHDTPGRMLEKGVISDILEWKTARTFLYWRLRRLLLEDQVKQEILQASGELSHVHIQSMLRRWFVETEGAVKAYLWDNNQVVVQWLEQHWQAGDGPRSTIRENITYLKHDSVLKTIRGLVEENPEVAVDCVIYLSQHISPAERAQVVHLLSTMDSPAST
The experiment in a line: ACC2 assay, spectrophotometric 384 well assay (NADH-linked, coupled lactate dehydrogenase/pyruvate kinase). The note with it: ACC2 assay, hACC2 construct lacking 128 N-terminal amino acids, 25° C., 340 nm; read-out: IC50. The class given is biochemical. In short, it runs like this:
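ADP output tracked via pyruvate kinase/lactate dehydrogenase NADH oxidation, slope at 340 nm over 15 min, 25° C, with 500 μM ATP and 200 μM each acetyl-CoA and NADH. Enzyme: insect-cell-expressed human ACC2, N-terminal 128 residues deleted; pH 7.5 Tris with citrate, KHCO3. IC50 from four-parameter regression versus vehicle and no-acetyl-CoA controls.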
Consider `CC(=O)N[C@@H](C)c1ccc(C2CCN(c3cccc(C(=O)O)c3)CC2)cc1` [Example 28.1, (S)-3-(4-(4-(1-Acetamidoethyl)phenyl)piperidin-1-yl)benzoic acid], for which the IC50 was 9300 nM. Then `CC(=O)N[C@@H](C)c1ccc(C2CCN(c3cccc(C(=O)N4CCc5ccccc5C4)c3)CC2)cc1` [Example 29.1, (S)—N-(1-(4-(1-(3-(1,2,3,4-Tetrahydroisoquinoline-2-carbonyl)phenyl)piperidin-4-yl)phenyl)ethyl)acetamide], with 1600 nM; and `CC(=O)N[C@@H](C)c1ccc(C2CCN(c3cccc(C(=O)N4Cc5ccccc5C4)c3)CC2)cc1` [Example 29.2], with 1700 nM; and `CCNC(=O)c1cccc(N2CCC(c3ccc([C@H](C)NC(C)=O)cc3)CC2)c1` [Example 29.3], with 6700 nM. For `CCOc1ccc(N2CCC(c3ccc([C@H](C)NC(=O)CC(C)=O)cc3)CC2)cc1` [Example 30.1], the IC50 was 2700 nM. `CCOc1ccc(N2CCC(c3ccc([C@H](C)NC(=O)CC(=O)OC)cc3)CC2)cc1` [Example 31.1, (S)-Methyl 3-(1-(4-(1-(4-Ethoxyphenyl)piperidin-4-yl)phenyl)ethylamino)-3-oxopropanoate]: the 50% inhibitory concentration (IC50) was 1600 nM.

Regarding `CCOc1ccc(N2CCC(c3ccc([C@H](C)NC(=O)CC(=O)O)cc3)CC2)cc1` [Example 32.1, (S)-3-(1-(4-(1-(4-Ethoxyphenyl)piperidin-4-yl)phenyl)ethylamino)-3-oxopropanoic Acid], the IC50 came out at 7200 nM. With `CCOc1ccc(N2CCC(c3ccc([C@H](C)NC(=O)CC(N)=O)cc3)CC2)cc1` [Example 33.1, (S)—N-(1-{4-[1-(4-Ethoxyphenyl)piperidin-4-yl]phenyl}ethyl)malonamide], the IC50 was 1700 nM. In the case of `CCOc1ccc(N2CCC(c3ccc([C@H](C)NC(=O)CC(=O)NC)cc3)CC2)cc1` [Example 33.2], the IC50 turned out to be 8900 nM. With `CC(=O)N[C@@H](C)c1ccc(C2CCN(c3cnc(-c4ccccn4)s3)CC2)cc1` [Example 34.1, (S)—N-(1-(4-(1-(2-(Pyridin-2-yl)thiazol-5-yl)piperidin-4-yl)phenyl)ethyl)acetamide] the figure was 420 nM; with `CC(=O)N[C@@H](C)c1ccc(C2CCN(c3csc(-c4ccc(C(F)(F)F)cn4)n3)CC2)cc1` [Example 34.2], 40 nM. Then `CCOc1ccc(N2CCC(c3ccc([C@H](C)NC(=O)CN)cc3)CC2)cc1` [Example 35.1, (S)-2-Amino-N-(1-{4-[1-(4-ethoxyphenyl)piperidin-4-yl]phenyl}ethyl)acetamide], with 5400 nM; and `CCOc1ccc(N2CCC(c3ccc([C@H](C)NC(=O)CN(C)C)cc3)CC2)cc1` [Example 36.1, (S)-2-(Dimethylamino)-N-(1-{4-[1-(4-ethoxyphenyl)piperidin-4-yl]phenyl}ethyl)acetamide], with 1600 nM. With `CCOc1ccc(N2CCC(c3ccc([C@H](C)NC(C)=O)cc3)CC2)c(C(N)=O)c1` [Example 37.1, (S)-2-(4-(4-(1-Acetamidoethyl)phenyl)piperidin-1-yl)-5-ethoxybenzamide], the IC50 is 23100 nM. In the case of `CCOc1ccc(N2CCC(c3ccc([C@H](C)NC(C)=S)cc3)CC2)cc1` [Example 38.1, (S)-N-(1-(4-(1-(4-Ethoxyphenyl)piperidin-4-yl)phenyl)ethyl)ethanethioamide], the IC50 was determined as 430 nM. With `CCOc1ccc(N2CCC(c3ccc([C@H](C)NC(C)=S)cc3)CC2)c(F)c1` [Example 38.2] the figure was 290 nM.

Turning to `CC(=O)N(C)[C@@H](C)c1ccc(C2CCN(c3ccc(OCC4CC4)cc3)CC2)cc1` [Example 39.1, (S)—N-(1-(4-(1-(4-Cyclopropylmethoxyphenyl)piperidin-4-yl)phenyl)ethyl)-N-methylacetamide], the 50% inhibitory concentration (IC50) was found to be 12000 nM. As to `CCN(C(C)=O)[C@@H](C)c1ccc(C2CCN(c3ccc(OCC4CC4)cc3)CC2)cc1` [Example 39.2], the IC50 came out at 1500 nM. Take `CCCOc1ccc(N2CCC(c3ccc([C@H](C)NC(=O)C(F)(F)F)cc3)CC2)c(OC)c1` [Example 40.1, (S)-2,2,2-Trifluoro-N-{1-[4-(1-(2-methoxy-4-propoxyphenyl)piperidin-4-yl)phenyl]-ethyl}acetamide]: the IC50 came to 290 nM. Then `CCOc1ccc(N2CCC(c3ccc([C@H](C)NC(=O)C(F)(F)F)cc3)CC2)cc1` [Example 40.2], with 80 nM.

The values above are taken from US9006450B2 (Boehringer Ingelheim International GmbH, priority 2010, dated 2015).
